Source: patent US6737383B1, “Herbicidal oxadiazolidines” (priority 1999, dated 2004)

Tests used:
soybean = test: Test B pre/postemergence soybean; type: in vivo, Glycine max
Method in brief: (§1)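 Test chemicals in a non-phytotoxic solvent mixture with surfactant were sprayed preemergence onto planted seeds and postemergence onto plants 2 to 18 cm tall (1- to 4-leaf stage). After twelve to sixteen days in a greenhouse, injury was visually rated against untreated controls from 0 (no effect) to 10 (complete control).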

rice = test: Test B flood test rice; type: in vivo, Oryza sativa
Method in brief: (§2)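 Each value is a visual injury score relative to controls, with 10 meaning complete control and 0 no effect. Evaluation took place twelve to sixteen days after the 2-leaf-stage plants were treated and kept in the greenhouse.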

sugar beet = test: Test B pre/postemergence sugar beet; type: in vivo, Beta vulgaris
Method in brief: as §1

velvetleaf = test: Test B pre/postemergence velvetleaf; type: in vivo, Abutilon theophrasti
Method in brief: as §1

crabgrass = test: Test B pre/postemergence crabgrass; type: in vivo, Digitaria sanguinalis
Method in brief: as §1

duck salad = test: Test B flood test duck salad; type: in vivo, Heteranthera limosa
Method in brief: as §2

purple nutsedge = test: Test B pre/postemergence purple nutsedge; type: in vivo, Cyperus rotundus
Method in brief: as §1

wheat = test: Test B pre/postemergence wheat; type: in vivo, Triticum aestivum
Method in brief: as §1

corn = test: Test B pre/postemergence corn; type: in vivo, Zea mays
Method in brief: as §1

pigweed = test: Test B pre/postemergence pigweed; type: in vivo, Amaranthus retroflexus
Method in brief: as §1

cocklebur = test: Test B pre/postemergence cocklebur; type: in vivo, Xanthium strumarium
Method in brief: as §1

bamyardgrass = test: Test B flood test barnyardgrass; type: in vivo, Echinochloa crus-galli
Method in brief: as §2

giant foxtail = test: Test B pre/postemergence giant foxtail; type: in vivo, Setaria faberii
Method in brief: as §1

rape = test: Test B pre/postemergence rape; type: in vivo, Brassica napus
Method in brief: as §1

morningglory = test: Test B pre/postemergence morningglory; type: in vivo, Ipomoea hederacea
Method in brief: as §1

wild oat = test: Test B pre/postemergence wild oat; type: in vivo, Avena fatua
Method in brief: as §1

[1] = Postemergence, Rate 62 g/ha, scale 0 to 10, 0 is no effect, 10 is complete control
[2] = Postemergence, Rate 250 g/ha, scale 0 to 10, 0 no effect, 10 complete control
[3] = Preemergence, Rate 62 g/ha, scale 0 to 10 (0 no effect, 10 complete control)
[4] = Preemergence, Rate 125 g/ha, scale 0 to 10 (0 no effect, 10 complete control)
[5] = Preemergence, Rate 250 g/ha, scale of 0 to 10 where 0 is no effect and 10 is complete control
[6] = Preemergence, Rate 500 g/ha, scale 0 (no effect) to 10 (complete control)
[7] = Rate 125 g/ha, Postemergence, scale 0 to 10, 0 no effect, 10 complete control
[8] = Rate 500 g/ha, Postemergence, scale 0 to 10, 0 no effect, 10 complete control
[9] = Rate 125 g/ha, Postemergence section (flood test species), scale 0 to 10, 0 no effect, 10 complete control
[10] = Rate 500 g/ha, listed under Postemergence (flood test species), scale 0 to 10, 0 no effect, 10 complete control
[11] = flood test, listed under Postemergence, Rate 250 g/ha, scale 0 to 10, 0 no effect, 10 complete control

Cc1nn(C)c(C)c1-n1c(=O)on(C(=O)N(c2ccc(F)cc2)C(C)C)c1=O [Compound 75]
0: Soybean plant response rating (soybean; [3]) | Plant response rating, Soybean (soybean; [4]) | Plant response rating, Soybean (soybean; [5]) | Soybean plant response rating (soybean; [6]) | Sugarbeets plant response rating (sugar beet; [1]) | Sugarbeets plant response rating (sugar beet; [2]) | Sugarbeets plant response rating (sugar beet; [3]) | Plant response rating, Sugarbeets (sugar beet; [4]) | Plant response rating, Sugarbeets (sugar beet; [5]) | Sugarbeets plant response rating (sugar beet; [7]) | Sugarbeets plant response rating (sugar beet; [8]) | Velvetleaf plant response rating (velvetleaf; [1]) | Velvetleaf plant response rating (velvetleaf; [2]) | Velvetleaf plant response rating (velvetleaf; [3]) | Plant response rating, Velvetleaf (velvetleaf; [4]) | Plant response rating, Velvetleaf (velvetleaf; [5]) | Velvetleaf plant response rating (velvetleaf; [6]) | Velvetleaf plant response rating (velvetleaf; [7]) | Velvetleaf plant response rating (velvetleaf; [8]) | Crabgrass plant response rating (crabgrass; [1]) | Ducksalad plant response rating (duck salad; [1]) | Ducksalad plant response rating (duck salad; [9]) | Ducksalad plant response rating (duck salad; [10]) | Ducksalad plant response rating (duck salad; [11]) | Nutsedge plant response rating (purple nutsedge; [1]) | Nutsedge plant response rating (purple nutsedge; [2]) | Nutsedge plant response rating (purple nutsedge; [3]) | Plant response rating, Nutsedge (purple nutsedge; [4]) | Plant response rating, Nutsedge (purple nutsedge; [5]) | Nutsedge plant response rating (purple nutsedge; [6]) | Nutsedge plant response rating (purple nutsedge; [7]) | Nutsedge plant response rating (purple nutsedge; [8]) | Wheat plant response rating (wheat; [1]) | Wheat plant response rating (wheat; [3]) | Plant response rating, Wheat (wheat; [4]) | Plant response rating, Wheat (wheat; [5]) | Wheat plant response rating (wheat; [7]) | Corn plant response rating (corn; [1]) | Corn plant response rating (corn; [2]) | Corn plant response rating (corn; [3]) | Plant response rating, Corn (corn; [4]) | Plant response rating, Corn (corn; [5]) | Corn plant response rating (corn; [6]) | Corn plant response rating (corn; [7]) | Corn plant response rating (corn; [8]) | Redroot pigweed plant response rating (pigweed; [1]) | Redroot pigweed plant response rating (pigweed; [2]) | Redroot pigweed plant response rating (pigweed; [3]) | Redroot pigweed plant response rating (pigweed; [7]) | Redroot pigweed plant response rating (pigweed; [8]) | Cocklebur plant response rating (cocklebur; [1]) | Cocklebur plant response rating (cocklebur; [3]) | Plant response rating, Cocklebur (cocklebur; [4]) | Plant response rating, Cocklebur (cocklebur; [5]) | Cocklebur plant response rating (cocklebur; [6]) | Cocklebur plant response rating (cocklebur; [7]) | Barnyardgrass plant response rating (bamyardgrass; [1]) | Barnyardgrass plant response rating (bamyardgrass; [9]) | Barnyardgrass plant response rating (bamyardgrass; [10]) | Barnyardgrass plant response rating (bamyardgrass; [11]) | Rape plant response rating (rape; [1]) | Rape plant response rating (rape; [2]) | Rape plant response rating (rape; [3]) | Plant response rating, Rape (rape; [4]) | Plant response rating, Rape (rape; [5]) | Rape plant response rating (rape; [7]) | Rape plant response rating (rape; [8]) | Morningglory plant response rating (morningglory; [3]) | Plant response rating, Morningglory (morningglory; [4]) | Plant response rating, Morningglory (morningglory; [5]) | Wild oats plant response rating (wild oat; [1]) | Wild oats plant response rating (wild oat; [2]) | Wild oats plant response rating (wild oat; [3]) | Plant response rating, Wild oats (wild oat; [4]) | Wild oats plant response rating (wild oat; [7])
7: Plant response rating, Redroot pigweed (pigweed; [5])
6: Giant foxtail plant response rating (giant foxtail; [3]) | Giant foxtail plant response rating (giant foxtail; [7])
2: Soybean plant response rating (soybean; [2]) | Soybean plant response rating (soybean; [8]) | Rice plant response rating (rice; [1]) | Rice plant response rating (rice; [9]) | Rice plant response rating (rice; [10]) | Rice plant response rating (rice; [11]) | Crabgrass plant response rating (crabgrass; [7]) | Wheat plant response rating (wheat; [2]) | Plant response rating, Redroot pigweed (pigweed; [4]) | Morningglory plant response rating (morningglory; [6]) | Wild oats plant response rating (wild oat; [8])
4: Sugarbeets plant response rating (sugar beet; [6]) | Wheat plant response rating (wheat; [8])
10: Plant response rating, Crabgrass (crabgrass; [5]) | Crabgrass plant response rating (crabgrass; [6]) | Redroot pigweed plant response rating (pigweed; [6]) | Giant foxtail plant response rating (giant foxtail; [6]) | Rape plant response rating (rape; [6])
3: Crabgrass plant response rating (crabgrass; [3]) | Wheat plant response rating (wheat; [6]) | Giant foxtail plant response rating (giant foxtail; [1]) | Morningglory plant response rating (morningglory; [8])
1: Soybean plant response rating (soybean; [1]) | Soybean plant response rating (soybean; [7]) | Cocklebur plant response rating (cocklebur; [2]) | Cocklebur plant response rating (cocklebur; [8]) | Morningglory plant response rating (morningglory; [1]) | Morningglory plant response rating (morningglory; [2]) | Morningglory plant response rating (morningglory; [7])
9: Crabgrass plant response rating (crabgrass; [2]) | Crabgrass plant response rating (crabgrass; [8]) | Plant response rating, Giant foxtail (giant foxtail; [4]) | Plant response rating, Giant foxtail (giant foxtail; [5])
8: Plant response rating, Crabgrass (crabgrass; [4]) | Giant foxtail plant response rating (giant foxtail; [2]) | Giant foxtail plant response rating (giant foxtail; [8]) | Plant response rating, Wild oats (wild oat; [5]) | Wild oats plant response rating (wild oat; [6])
